# Source: PubChem BioAssay AID2060496 (Molecular Pharmacology Branch, DTP, NCI, 2025)
# Test system: 276233-004-R-J1-PDC complex spheroid viability
# Assay: Anticancer human tumor 276233-004-R-J1-PDC patient-derived colon adenocarcinoma cell line growth inhibition [GQUAD]
# Details: for IC50: curve of first compound; for viability, T/C: stronger effect = lower value
# Summary of the method: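 Multi-cell-type spheroids of tumor cells with HUVEC and mesenchymal stem cells, treated with drug combinations. Concentrations descend in half-log steps from near clinical Cmax, or from 10 microM where Cmax is unknown; viability read-out.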
# [1] = second compound 0.0316 µM, first compound 0.0316 µM
# [2] = second compound 0.0316 µM, first compound 0.316 µM
# [3] = second compound 0.1 µM, first compound 0.0316 µM
# [4] = second compound 0.1 µM, first compound 0.316 µM
# [5] = second compound 0.316 µM, first compound 0.0316 µM
# [6] = second compound 0.316 µM, first compound 0.316 µM
# [7] = second compound 1 µM, first compound 0.0316 µM
# [8] = second compound 1 µM, first compound 0.316 µM
# [9] = second compound 3.16 µM, first compound 0.0316 µM
# [10] = second compound 3.16 µM, first compound 0.316 µM
# [11] = second compound 10 µM, first compound 0.0316 µM
# [12] = second compound 10 µM, first compound 0.316 µM
# 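Further: spheroids exposed to drugs for seven days.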
# 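Wherever viability, T/C is given: 100% = DMSO vehicle control viability.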
smiles,measurement,setting,value
O=C(NO)c1cnc(N2CCN(S(=O)(=O)c3ccc4ccccc4c3)CC2)nc1 + Cc1cnc(CNC(=O)c2c(=O)c3ccc(N4CCCN(C)CC4)nc3n3c2sc2ccccc23)cn1,IC50,second compound 0.0316 µM,456 nM
same,IC50,second compound 0.1 µM,284 nM
same,IC50,second compound 0.316 µM,281 nM
same,IC50,second compound 1 µM,195 nM
same,IC50,second compound 3.16 µM,146 nM
same,IC50,second compound 10 µM,112 nM
same,"viability, T/C",[1],102%
same,"viability, T/C","second compound 0.0316 µM, first compound 0.1 µM",86.2%
same,"viability, T/C",[2],69%
same,"viability, T/C","second compound 0.0316 µM, first compound 1 µM",10.2%
same,"viability, T/C","second compound 0.0316 µM, first compound 3.16 µM",5.35%
same,"viability, T/C","second compound 0.0316 µM, first compound 10 µM",4.15%
same,"viability, T/C",[3],93.9%
same,"viability, T/C","second compound 0.1 µM, first compound 0.1 µM",94.6%
same,"viability, T/C",[4],44.4%
same,"viability, T/C","second compound 0.1 µM, first compound 1 µM",13.8%
same,"viability, T/C","second compound 0.1 µM, first compound 3.16 µM",5.07%
same,"viability, T/C","second compound 0.1 µM, first compound 10 µM",3.5%
same,"viability, T/C",[5],84.6%
same,"viability, T/C","second compound 0.316 µM, first compound 0.1 µM",85.2%
same,"viability, T/C",[6],46%
same,"viability, T/C","second compound 0.316 µM, first compound 1 µM",6.38%
same,"viability, T/C","second compound 0.316 µM, first compound 3.16 µM",5.3%
same,"viability, T/C","second compound 0.316 µM, first compound 10 µM",5.47%
same,"viability, T/C",[7],67.8%
same,"viability, T/C","second compound 1 µM, first compound 0.1 µM",86%
same,"viability, T/C",[8],30.5%
same,"viability, T/C","second compound 1 µM, first compound 1 µM",6.13%
same,"viability, T/C","second compound 1 µM, first compound 3.16 µM",4.71%
same,"viability, T/C","second compound 1 µM, first compound 10 µM",4.58%
same,"viability, T/C",[9],72.2%
same,"viability, T/C","second compound 3.16 µM, first compound 0.1 µM",63.9%
same,"viability, T/C",[10],21.5%
same,"viability, T/C","second compound 3.16 µM, first compound 1 µM",5.71%
same,"viability, T/C","second compound 3.16 µM, first compound 3.16 µM",5.15%
same,"viability, T/C","second compound 3.16 µM, first compound 10 µM",5.15%
same,"viability, T/C",[11],71.6%
same,"viability, T/C","second compound 10 µM, first compound 0.1 µM",54.2%
same,"viability, T/C",[12],11.4%
same,"viability, T/C","second compound 10 µM, first compound 1 µM",5.41%
same,"viability, T/C","second compound 10 µM, first compound 3.16 µM",4.71%
same,"viability, T/C","second compound 10 µM, first compound 10 µM",3.76%
Cc1[nH]c2ccccc2c1CCNCc1ccc(/C=C/C(=O)NO)cc1 + Cc1[nH]c2ccc(F)cc2c1-c1nc2c3cccnc3c3ncccc3c2[nH]1,IC50,second compound 0.0316 µM,102 nM
same,IC50,second compound 0.1 µM,72.1 nM
same,IC50,second compound 0.316 µM,45.2 nM
same,IC50,second compound 1 µM,39 nM
same,IC50,second compound 3.16 µM,< 0.999 nM
same,IC50,second compound 10 µM,< 0.999 nM
same,"viability, T/C","second compound 0.0316 µM, first compound 0.000999 µM",82.7%
same,"viability, T/C","second compound 0.0316 µM, first compound 0.00316 µM",100%
same,"viability, T/C","second compound 0.0316 µM, first compound 0.00999 µM",82.1%
same,"viability, T/C",[1],96%
same,"viability, T/C","second compound 0.0316 µM, first compound 0.0999 µM",50.5%
same,"viability, T/C",[2],13.1%
same,"viability, T/C","second compound 0.1 µM, first compound 0.000999 µM",76.9%
same,"viability, T/C","second compound 0.1 µM, first compound 0.00316 µM",84.2%
same,"viability, T/C","second compound 0.1 µM, first compound 0.00999 µM",62.8%
same,"viability, T/C",[3],68%
same,"viability, T/C","second compound 0.1 µM, first compound 0.0999 µM",43.9%
same,"viability, T/C",[4],10.9%
same,"viability, T/C","second compound 0.316 µM, first compound 0.000999 µM",64.2%
same,"viability, T/C","second compound 0.316 µM, first compound 0.00316 µM",62.3%
same,"viability, T/C","second compound 0.316 µM, first compound 0.00999 µM",46.5%
same,"viability, T/C",[5],64%
same,"viability, T/C","second compound 0.316 µM, first compound 0.0999 µM",26.4%
same,"viability, T/C",[6],32.4%
same,"viability, T/C","second compound 1 µM, first compound 0.000999 µM",58.9%
same,"viability, T/C","second compound 1 µM, first compound 0.00316 µM",44.6%
same,"viability, T/C","second compound 1 µM, first compound 0.00999 µM",65.7%
same,"viability, T/C",[7],50.8%
same,"viability, T/C","second compound 1 µM, first compound 0.0999 µM",37.1%
same,"viability, T/C",[8],7.17%
same,"viability, T/C","second compound 3.16 µM, first compound 0.000999 µM",18.3%
same,"viability, T/C","second compound 3.16 µM, first compound 0.00316 µM",15.9%
same,"viability, T/C","second compound 3.16 µM, first compound 0.00999 µM",21.4%
same,"viability, T/C",[9],13.6%
same,"viability, T/C","second compound 3.16 µM, first compound 0.0999 µM",7.05%
same,"viability, T/C",[10],6.05%
same,"viability, T/C","second compound 10 µM, first compound 0.000999 µM",35.8%
same,"viability, T/C","second compound 10 µM, first compound 0.00316 µM",45.9%
same,"viability, T/C","second compound 10 µM, first compound 0.00999 µM",36.5%
same,"viability, T/C",[11],39.7%
same,"viability, T/C","second compound 10 µM, first compound 0.0999 µM",35.3%
same,"viability, T/C",[12],17.5%
